The subject of experiment [1] is HIF-1α. The experiment in a line: HIF-1α decay after washout of inducer. In kind it is cell-based, human. As to the method:
(§1) Human U87, U251, U251-HRE (20) and U373 glioma cells were cultured in Eagle's MEM medium (Mediatech). DU145 human prostate cancer cells and 022 human head and neck cancer cells were cultured in RPMI 1640 medium (Sigma). 22B Human head and neck cancer cells were cultured in high glucose DMEM (Gibco) containing 2 mM glutamine. C6 ODD-GFP rat glioma cells were cultured in high glucose DMEM with 1.5 mg/ml G418. All culture media were supplemented with 10% fetal bovine serum and 1% (v/v) penicillin/streptomycin. Rat C6 glioma cells were cultured in high glucose DMEM. For cell hypoxia treatment, the culture dishes were sealed in a modular incubator chamber, flushed with gas containing 1% O2, 5% CO2 and 94% N2 for 5 minutes, and incubated in this environment at 37° C. for indicated times.
(§2) Protein extraction, western blot analysis, and immunocytochemistry were performed as previously described. Mouse monoclonal anti-HIF-1α antibodies were 610958 (BD Biosciences), and NB100-123 (Novus). Mouse monoclonal anti-GFP antibody was 1814460 (Roche). Mouse monoclonal anti-β-actin antibody was ab6276-100 (Abcam). Dimethyloxalylglycine was D1070 (Frontier Scientific). All other chemicals were from Sigma. Antibodies recognizing HPH homologues were from Novus biologicals and the antisera recognizing […] of HIF-1α was kindly provided by R. Freeman.
To test this U251 cells was exposed to glucose-free Krebs buffer to either hypoxia (1% O2) or 2 mM pyruvate for four hours. Nuclear HIF-1α protein accumulation was induced by both treatments (FIG. 6A). […] HIF-1α immunoreactivity disappeared rapidly upon reoxygenation (return to 21% O2) of hypoxic cells as would be expected with the resumption of oxygen-dependent HIF-1α hydroxylation and proteolysis. […] To directly determine if the HPH activity in glioma cells was reversibly inactivated by pyruvate and oxaloacetate the ^35S-pVHL pulldown assay to measure HPH activity in extracts from cells treated for four hours with the 2-oxoacids was used. To capture the endogenous state of HPH activity, the cell extracts were first assayed without supplementation with exogenous reductants, ascorbate, or iron. […] The minimal HPH activity of extracts from pyruvate or oxaloacetate treated cells could also be restored by supplementation of the extracts with ascorbate or with exogenous ferrous iron (FeSO4) during the assay (FIG. 6D).

In experiment [2] the test system is HIF-1α. As to the kind of experiment: Nuclear HIF-1α accumulation in human cancer cell lines (western blot). As to conditions: for inhibition of HIF-1α accumulation, L- vs D-isomers and dimer: U87, four hours, glucose-free Krebs, 1 mM pyruvate or oxaloacetate, 250 μM (FIG. 3C); for HIF-1α accumulation induced by metabolite: substituted for glucose in Krebs buffer, normoxia; for HIF-1α accumulation induced by metabolite / HIF-1α accumulation induced by oxidant: four hours; for HIF-1α accumulation induced by oxidant: U251 cells; for dose inducing HIF-1α (doses as low as): culture times longer than 8 h; for threshold dose for inducing HIF-1α accumulation: four hours period of cell culture. In kind it is cell-based. As for the experimental part:
as §1, with “DU145 human prostate cancer cells and 022 human head and neck cancer cells were cultured in RPMI 1640 medium (Sigma).” left out
Protein extraction, western blot analysis, and immunocytochemistry were performed as previously described. […] Mouse monoclonal anti-β-actin antibody was ab6276-100 (Abcam). Dimethyloxalylglycine was D1070 (Frontier Scientific). All other chemicals were from Sigma.

The subject of experiment [3] is HIF-1α. As to the kind of experiment: HIF-1α accumulation in 22B head and neck cancer cells. To be noted: 22B cells, 100 μM each, last 30 minutes after 24 hours accumulation. In kind it is cell-based, human. As to the method:
as §1, §2

Experiment [4] concerns labile intracellular iron pool. The experiment in a line: Calcein fluorescence assay for cellular free iron. In kind it is cell-based, human. To be noted: calcein loaded U251 cells. As to the method: The ability of 2-oxoacids to chelate the labile intracellular iron pool was measured using the calcein fluorescence assay as previously described. The iron chelators desferrioxamine and bipyridyl were used as positive controls.

The subject of a further experiment is HPH. The experiment in a line: 2-Oxoglutarate: HPH binding assay. As to conditions: competitor 10 mM. Set-up: species or system human. As to the method:
Gel was washed four times with the indicated buffer. Analysis of HPH binding was measured by scintillation counting.

For another experiment, the system named is ODD-GFP. As to the kind of experiment: Live cell assay for oxygen-dependent degradation, ODD-GFP transfected C6 glioma cells. In kind it is cell-based, rat. To be noted: C6 cells in Krebs buffer, 24 hours. As to the method:
as §1
Next a live cell assay for oxygen-dependent HIF-1α degradation using C6 rat glioma cells that had been stably transfected with a vector encoding the HIF-1 cc ODD region fused to GFP (ODD-GFP) was performed. The ODD-GFP protein is hydroxylated and degraded in an oxygen dependent manner similar to HIF-1α. As with HIF-1α, a basal, as well as, hypoxia-inducible accumulation of ODD-GFP has been reported.

Another experiment deals with HIF-1. The experiment in a line: HIF-1 luciferase reporter assay in U251-HRE cells. To be noted: 8 h. In kind it is cell-based, human.
In experiment [5] the test system is HIF-1α. As to the kind of experiment: HIF-1α hydroxyproline detection in U251 whole cell extracts. As to conditions: U251, four hours, antibody to hydroxylated ODD region. In kind it is cell-based, human. As for the experimental part: as §2
Some reactive oxygen species can also induce HIF-1α. […] Next, attention was focused on HIF-1α proline hydroxylation as a target for 2-oxoacids.

Entries after “also recorded” stand apart in the source; their conditions may differ. Where a SMILES comes first, the peptide text is derived from it. The star is where a group is joined. Cbz = O=C(OCc1ccccc1)*

`N[C@@H](CCC(=O)N[C@@H](CS)C(=O)NCC(=O)O)C(=O)O` [GSH, glutathione]: the “HIF-1α decay with agent added to the wash” value in the experiment on HIF-1α [1] (U87 after pyruvate or oxaloacetate, 100 μM ascorbate, 5 mM GSH or MEM amino acid mixture) is “HIF-1α decay was rapidly resumed”. The “HIF-1α accumulation by hypoxia or the iron chelator DFO” value in the experiment with HIF-1α [2] (FIG. 3C, 1% O2 or 150 μM DFO) is “not by hypoxia or DFO”. For the same compound, the “inhibition of HIF-1α accumulation, L- vs D-isomers and dimer” value in the experiment with HIF-1α [2] is recorded as “selectively inhibited”. The “NO induced HIF-1α accumulation” value with HIF-1α [2] (U251, MEM, DETA-NO 300 μM, ascorbate 100 μM, Fe(II) 100 μM, GSH 5 mM) is on record as “complete inhibition”.

Consider `[Fe+3]` [Fe(III)], for which, in the experiment with HIF-1α [1] (100 μM each), the “HIF-1α decay following induction with pyruvate or oxaloacetate, iron in wash” value is given as “not Fe(III)”; the “decay of NO-induced HIF-1α with iron in wash” value is given as “not Fe(III)”; the “decay of accumulated HIF-1α after washing out DFO, iron added” value is “not Fe(III)”. Moreover, the “accumulated (pyruvate-enhanced) HIF-1α after supplementation” value in the experiment on HIF-1α [3] is given as “Fe(II)>Fe(III)”. Besides, in the experiment with HIF-1α [3] (listed as ferric iron), the “accumulated (pyruvate-enhanced) HIF-1α after supplementation” value is listed as “diminished to a greater extent by ferrous iron than by ferric iron”.

As to `CC(=O)N(O)CCCCCNC(=O)CCC(=O)N(O)CCCCCNC(=O)CCC(=O)N(O)CCCCCN` [DFO, desferrioxamine], in experiment [4], the intracellular calcein fluorescence entry is listed as “increase in fluorescence”.

Turning to `CC(=O)C=O` [pyruvaldehyde], the “HIF-1α accumulation induced by metabolite” value with HIF-1α [2] was “unable to induce HIF-1α accumulation”.

In the case of `O=C(O)CCC(=O)O` [Succinate], in the experiment on HPH, the “displacement of iron dependent binding of 35S-HPHs to immobilized 2-OG” value (shortened to “displacement”) is “not by succinate; also recorded: did not find a significant effect”. The “stimulation of basal ODD-GFP accumulation” value in the experiment with ODD-GFP was “not by succinate; also recorded: did not find a significant effect”. The “induction of HIF-1 regulated reporter gene (HRE-luciferase)” value in the experiment on HIF-1 is listed as “did not find a significant effect”. Further, the “HIF-1α accumulation induced by metabolite” value was “unable to induce HIF-1α accumulation” with HIF-1α [2] and “did not find a significant effect” in the experiment with HIF-1α [2] (listed as succinate).

For the compound `CC[C@H](C)C(=O)C(=O)O` [α-keto-β-methylvalerate], the “HIF-1α accumulation induced by metabolite” value in the experiment with HIF-1α [2] is recorded as “active in some but not all cell lines”.

Regarding `N[C@@H](CSSC[C@H](N)C(=O)O)C(=O)O` [cystine], in the experiment with HIF-1α [2], the “inhibition of HIF-1α accumulation, L- vs D-isomers and dimer” value is reported as “effective”.

Take `CCC(=O)C(=O)O` [α-ketobutyrate]: the “HIF-1α accumulation induced by metabolite” value in the experiment with HIF-1α [2] is on record as “did not induce HIF-1α accumulation”.

Consider `CC(C)C(=O)C(=O)O` [α-ketoisovalerate], for which, in the experiment with HIF-1α [2], the “HIF-1α accumulation induced by metabolite” value was “minor activity”.

For the compound `C[C@H](N)C(=O)O` [alanine], the “HIF-1α accumulation induced by metabolite” value in the experiment on HIF-1α [2] is given as “unable to induce HIF-1α accumulation”.

Turning to `NCCN(CCN)[N+]([O-])=NO` [NO], the “HIF-1α decay after washing of NO treated cells” value with HIF-1α [1] (extensive washing with MEM) is “sluggish HIF-1α decay”. Besides, the “HIF-1α accumulation induced by oxidant” value in the experiment on HIF-1α [2] is reported as “induce HIF-1α accumulation”.

Consider `CC(=O)C(=O)O` [pyruvate], for which, in the experiment with HIF-1α [2], the “dose inducing HIF-1α (doses as low as)” value came out at 100 µM and the “threshold dose for inducing HIF-1α accumulation” value is recorded as “about 300 μM”.

`O=C(O)CCCC(=O)C(=O)O` [α-ketoadipate]: in the experiment with HIF-1α [2], the “HIF-1α accumulation induced by metabolite” value is given as “did not induce HIF-1α accumulation”.

On to `CC(O)CC(=O)O` (stereo not drawn) [β-hydroxybutyrate], for which the “HIF-1α accumulation induced by metabolite” value with HIF-1α [2] is given as “unable to induce HIF-1α accumulation”.

For `OO` [H2O2], the “HIF-1α accumulation induced by oxidant” value in the experiment on HIF-1α [2] is “induce HIF-1α accumulation”.

As to `O=C(O)/C=C/C(=O)O` [fumarate], the “displacement” value with HPH is “did not find a significant effect”. Further, in the experiment on ODD-GFP, the “stimulation of basal ODD-GFP accumulation” value is given as “did not find a significant effect”. For the same compound, the “induction of HIF-1 regulated reporter gene (HRE-luciferase)” value with HIF-1 is “did not find a significant effect”. Besides, the “HIF-1α accumulation induced by metabolite” value in the experiment with HIF-1α [2] was “unable to induce HIF-1α accumulation; also recorded: did not find a significant effect”.

Regarding `O=C(O)C(=O)CF` [fluoropyruvate], the “HIF-1α accumulation induced by metabolite” value with HIF-1α [2] was “not able to induce HIF-1α accumulation”.

Consider `NC(=O)CC[C@H](N)C(=O)O` [glutamine], for which the “basal HIF-1α accumulation” value with HIF-1α [2] (U251 cells switched to Krebs buffer for 4 hours, 10 mM glutamine) is reported as “no basal HIF-1α accumulation”.

For `O=C(O)C(=O)C(=O)O` [ketomalonate], the “HIF-1α accumulation induced by metabolite” value in the experiment with HIF-1α [2] is on record as “did not induce HIF-1α accumulation”.

On to `CC(C)CC(=O)C(=O)O` [α-ketoisocaproate], for which, in the experiment with HIF-1α [2], the “HIF-1α accumulation induced by metabolite” value is “active in some but not all cell lines”.

Take `O=C(O)CC(=O)C(=O)O` [oxaloacetate]: in the experiment with HIF-1α [2], the “dose inducing HIF-1α (doses as low as)” value was 100 µM and the “threshold dose for inducing HIF-1α accumulation” value is “about 300 μM”.

`CC(C)C[C@@H](C=O)NC(=O)[C@H](CC(C)C)NC(=O)[C@H](CC(C)C)NC(=O)OCc1ccccc1` [MG132] (Cbz-Leu-Leu-Leu-aldehyde): the “hydroxyproline (Pro564) in induced HIF-1α” value with HIF-1α [5] is given as “hydroxyproline was detected”.

`O=C(O)CCC(=O)C(=O)O` [2-OG, 2-oxoglutarate]: in the experiment with HPH, the “displacement” value was “readily displaced”.

In the case of `CC(=O)CC(=O)O` [acetoacetate], the “HIF-1α accumulation induced by metabolite” value with HIF-1α [2] is “unable to induce HIF-1α accumulation”.

Turning to `O=C(O)CC(O)C(=O)O` (centres unmarked) [malate], in the experiment on HIF-1α [2], the “HIF-1α accumulation induced by metabolite” value is “unable to induce HIF-1α accumulation”.

Turning to `CCOC(=O)C(C)=O` [ethyl esters of pyruvate, ethyl-pyruvate], the “HIF-1α accumulation induced by metabolite” value in the experiment with HIF-1α [2] is given as “effective”.

Consider `c1ccc(-c2ccccn2)nc1` [bipyridyl], for which the intracellular calcein fluorescence entry in experiment [4] is listed as “increase in fluorescence”.

The values are drawn from patent US20080045463A1, “Methods For Lowering Hif-1 Mediated Gene Expression” (priority 2004, published 2008).
